Legend:
[1] = tested on: NCI-H929 (Plasma Cell Myeloma); test: Bliss excess, mean over the matrix (fraction); higher = more synergy
How it was run: (§1)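 Cell lines grown in DMEM/F12 or RPMI with 10% FBS were plated in 1536-well plates and held 24 hours at 37°C, 5% CO2 before 72 hours of exposure to two-drug dose matrices, with DMSO typically at 0.2%. CellTiter-Glo 2.0 luminescence gave viability, which was converted to inhibition. Vehicle wells were set to 0 and blank wells to 1. Combination Emax is the second-highest inhibition in the matrix, and Bliss excess is the observed combination effect minus the expected EA + EB − EA·EB, where EA and EB are the single-agent effects.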

[2] = tested on: CW-2 (Colorectal Carcinoma); test: as above
How it was run: as §1

[3] = tested on: T-T (Esophageal Squamous Cell Carcinoma); test: as above
How it was run: as §1

[4] = tested on: ST486 (Burkitt's Lymphoma); test: as above
How it was run: as §1

[5] = tested on: NCCIT (Other Solid Carcinomas); test: as above
How it was run: as §1

[6] = tested on: COR-L279 (Small Cell Lung Carcinoma); test: as above
How it was run: as §1

M059J (Glioblastoma) [7] = test: as above
How it was run: as §1

[8] = tested on: KU812 (Chronic Myelogenous Leukemia); test: as above
How it was run: as §1

[9] = tested on: OCI-AML3 (Acute Myeloid Leukemia); test: as above
How it was run: as §1

[10] = tested on: SK-GT-4 (Esophageal Adenocarcinoma); test: as above
How it was run: as §1

[11] = tested on: KYSE-270 (Esophageal Squamous Cell Carcinoma); test: as above
How it was run: as §1

[12] = tested on: MOG-G-CCM (Low Grade Glioma); test: as above
How it was run: as §1

[13] = tested on: VMRC-RCZ (Kidney Carcinoma); test: as above
How it was run: as §1

[14] = tested on: NCI-H3122 (Lung Adenocarcinoma); test: as above
How it was run: as §1

SJSA-1 (Osteosarcoma) [15] = test: as above
How it was run: as §1

[16] = tested on: NCI-H520 (Squamous Cell Lung Carcinoma); test: as above
How it was run: as §1

[17] = tested on: NCI-H526 (Small Cell Lung Carcinoma); test: as above
How it was run: as §1

[18] = tested on: KP-3 (Pancreatic Carcinoma); test: as above
How it was run: as §1

[19] = tested on: MN-60 (B-Lymphoblastic Leukemia); test: as above
How it was run: as §1

[20] = tested on: DMS-114 (Small Cell Lung Carcinoma); test: as above
How it was run: as §1

NCI-H2731 (Mesothelioma) [21] = test: as above
How it was run: as §1

[22] = tested on: NCI-H929 (Plasma Cell Myeloma); test: combination Emax (second highest fraction inhibited in the dose matrix, 72 h); higher = more inhibition; extreme values may be limits of the assay
How it was run: as §1

[23] = tested on: CW-2 (Colorectal Carcinoma); test: as above
How it was run: as §1

[24] = tested on: T-T (Esophageal Squamous Cell Carcinoma); test: as above
How it was run: as §1

[25] = tested on: ST486 (Burkitt's Lymphoma); test: as above
How it was run: as §1

[26] = tested on: NCCIT (Other Solid Carcinomas); test: as above
How it was run: as §1

[27] = tested on: COR-L279 (Small Cell Lung Carcinoma); test: as above
How it was run: as §1

M059J (Glioblastoma) [28] = test: as above
How it was run: as §1

[29] = tested on: KU812 (Chronic Myelogenous Leukemia); test: as above
How it was run: as §1

[30] = tested on: OCI-AML3 (Acute Myeloid Leukemia); test: as above
How it was run: as §1

[31] = tested on: SK-GT-4 (Esophageal Adenocarcinoma); test: as above
How it was run: as §1

[32] = tested on: KYSE-270 (Esophageal Squamous Cell Carcinoma); test: as above
How it was run: as §1

[33] = tested on: MOG-G-CCM (Low Grade Glioma); test: as above
How it was run: as §1

[34] = tested on: VMRC-RCZ (Kidney Carcinoma); test: as above
How it was run: as §1

[35] = tested on: NCI-H3122 (Lung Adenocarcinoma); test: as above
How it was run: as §1

SJSA-1 (Osteosarcoma) [36] = test: as above
How it was run: as §1

[37] = tested on: NCI-H520 (Squamous Cell Lung Carcinoma); test: as above
How it was run: as §1

[38] = tested on: NCI-H526 (Small Cell Lung Carcinoma); test: as above
How it was run: as §1

[39] = tested on: KP-3 (Pancreatic Carcinoma); test: as above
How it was run: as §1

[40] = tested on: MN-60 (B-Lymphoblastic Leukemia); test: as above
How it was run: as §1

[41] = tested on: DMS-114 (Small Cell Lung Carcinoma); test: as above
How it was run: as §1

NCI-H2731 (Mesothelioma) [42] = test: as above
How it was run: as §1
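Wherever Bliss excess, mean over the matrix is given: after 72 h of two-drug dosing.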

`N#Cc1cnc(Nc2cc(NC[C@H]3CNCCO3)c(C(F)(F)F)cn2)cn1` [SRA737] + CCc1c2c(nc3ccc(O)cc13)-c1cc3c(c(=O)n1C2)COC(=O)[C@]3(O)CC [SN-38] (first compound max 10 µM, 7x7, partner max 0.3 µM) was tested, and the Bliss excess [1] was -0.0781, the Bliss excess [2] was -0.0853 and the Bliss excess [3] was 0.0451. It also gave a Bliss excess [4] of -0.0232, a Bliss excess [5] of 0.0294 and a Bliss excess [6] of -0.0153. It also gave a Bliss excess (M059J (Glioblastoma) [7]) of -0.0326, a Bliss excess [8] of -0.0939 and a Bliss excess [9] of -0.067. For the same compound, the Bliss excess [10] was -0.0544, the Bliss excess [11] was -0.0265 and the Bliss excess [12] was -0.0105. The Bliss excess [13] was -0.0348, the Bliss excess [14] was -0.0454 and the Bliss excess (SJSA-1 (Osteosarcoma) [15]) was -0.0751. It also gave a Bliss excess [16] of -0.0063, a Bliss excess [17] of -0.0427 and a Bliss excess [18] of -0.0089. It also gave a Bliss excess [19] of -0.0495, a Bliss excess [20] of -0.0589 and a Bliss excess (NCI-H2731 (Mesothelioma) [21]) of -0.005. The “combination Emax” value [22] was 0.9, the “combination Emax” value [23] was 0.625 and the “combination Emax” value [24] was 0.834. For the same compound, the “combination Emax” value [25] was 0.991, the “combination Emax” value [26] was 0.783 and the “combination Emax” value [27] was 1. For the same compound, the “combination Emax” value (M059J (Glioblastoma) [28]) was 0.908, the “combination Emax” value [29] was 0.799 and the “combination Emax” value [30] was 0.849. For the same compound, the “combination Emax” value [31] was 0.55, the “combination Emax” value [32] was 1 and the “combination Emax” value [33] was 0.734. The “combination Emax” value [34] was 0.579, the “combination Emax” value [35] was 0.857 and the “combination Emax” value (SJSA-1 (Osteosarcoma) [36]) was 0.664. The “combination Emax” value [37] was 0.819, the “combination Emax” value [38] was 0.993 and the “combination Emax” value [39] was 0.273. The “combination Emax” value [40] was 0.79, the “combination Emax” value [41] was 0.608 and the “combination Emax” value (NCI-H2731 (Mesothelioma) [42]) was 0.478.

Work on `CC1(C)CCC(CN2CCN(c3ccc(C(=O)NS(=O)(=O)c4ccc(NCC5CCOCC5)c([N+](=O)[O-])c4)c(Oc4cnc5[nH]ccc5c4)c3)CC2)=C(c2ccc(Cl)cc2)C1` [Venetoclax] + CS(=O)(=O)CCNCc1ccc(-c2ccc3ncnc(Nc4ccc(OCc5cccc(F)c5)c(Cl)c4)c3c2)o1 [Lapatinib] (first compound max 1 µM, 7x7, partner max 10 µM) yielded a Bliss excess [1] of -0.0098, a Bliss excess [2] of -0.0116 and a Bliss excess [3] of -0.0066. It also gave a Bliss excess [4] of 0.0224, a Bliss excess [5] of -0.024 and a Bliss excess [6] of -0.0185. It also gave a Bliss excess (M059J (Glioblastoma) [7]) of -0.0225, a Bliss excess [8] of 0.0282 and a Bliss excess [9] of 0.01. The Bliss excess [10] was -0.0436, the Bliss excess [11] was -0.0175 and the Bliss excess [12] was -0.0568. The Bliss excess [13] was -0.047, the Bliss excess [14] was -0.0229 and the Bliss excess (SJSA-1 (Osteosarcoma) [15]) was -0.002. For the same compound, the Bliss excess [16] was -0.0169, the Bliss excess [17] was 0.105 and the Bliss excess [18] was -0.0487. For the same compound, the Bliss excess [19] was -0.0502, the Bliss excess [20] was -0.0443 and the Bliss excess (NCI-H2731 (Mesothelioma) [21]) was -0.0257. The “combination Emax” value [22] was 0.207, the “combination Emax” value [23] was 0.379 and the “combination Emax” value [24] was 0.794. The “combination Emax” value [25] was 0.524, the “combination Emax” value [26] was 0.209 and the “combination Emax” value [27] was 0.911. For the same compound, the “combination Emax” value (M059J (Glioblastoma) [28]) was 0.365, the “combination Emax” value [29] was 0.831 and the “combination Emax” value [30] was 0.397. For the same compound, the “combination Emax” value [31] was 0.341, the “combination Emax” value [32] was 0.477 and the “combination Emax” value [33] was 0.166. For the same compound, the “combination Emax” value [34] was 0.155, the “combination Emax” value [35] was 0.232 and the “combination Emax” value (SJSA-1 (Osteosarcoma) [36]) was 0.219. For the same compound, the “combination Emax” value [37] was 0.296, the “combination Emax” value [38] was 0.727 and the “combination Emax” value [39] was 0.165. For the same compound, the “combination Emax” value [40] was 0.111, the “combination Emax” value [41] was 0.226 and the “combination Emax” value (NCI-H2731 (Mesothelioma) [42]) was 0.285.

— the supplement of paper PMC11061612
